These results are taken from US10793568B2, “Hormone receptor modulators for treating metabolic conditions and disorders” (ARDELYX, INC., priority 2016, dated 2020).

Each structure is given as a SMILES string. Bounds are passed on as bounds.

The test deals with ligand binding domain of human FXR (Homo sapiens (Human), UniProt Q96RI1). Kind of test: FXR ligand binding assay (LanthaScreen TR-FRET, SRC2-2 peptide recruitment). The settings on record: for Emax: extent of activation relative to GW4064, read-out: % Efficacy. Here is the method:
The affinity of FXR ligands for the ligand binding domain of FXR was determined using a commercially available human FXR ligand binding assay (LanthaScreen, Thermofisher Cat # PV4833). […] Binding of FXR ligands to the FXR ligand binding domain promotes binding of the fluorescein-labelled SRC2-2 peptide. This causes a FRET signal between the terbium-labelled anti-GST antibody and the fluorescein-labelled SRC peptide which are both bound to the FXR ligand binding domain.
Test compounds are dissolved in DMSO and a 3-fold serial dilution series is generated, then further diluted into assay buffer. The compounds are mixed with 5 nM GST-tagged FXR ligand binding domain, 5 nM Tb-labelled anti-GST antibody and 500 nM fluorescein-labelled SRC2-2 peptide in a pH7.4 buffer. The reaction is incubated at room temperature for 1 hour, then the FRET signal is measured as the ratio of the 520 nm/495 nm emission following excitation at 340 nm. The change in FRET signal is plotted against the test article concentration and fit to a 3-parameter logistical equation. The concentration required to produce 50% activation is expressed as pEC50 (−log EC50), and the extent of activation is expressed relative to GW4064 as % activation.

[1] abbreviates: -log EC50, concentration required to produce 50% activation.

Chain of ligand binding domain of human FXR (Q96RI1 262-486): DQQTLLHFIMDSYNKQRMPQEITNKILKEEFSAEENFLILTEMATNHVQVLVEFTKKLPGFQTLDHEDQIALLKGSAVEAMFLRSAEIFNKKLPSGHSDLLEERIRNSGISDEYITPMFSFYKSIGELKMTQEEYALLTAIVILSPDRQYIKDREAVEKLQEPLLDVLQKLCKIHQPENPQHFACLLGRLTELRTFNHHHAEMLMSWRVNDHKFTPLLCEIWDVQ

Take `O=C(O)c1ccc(N2C(=O)[C@@H]3C[C@H]2C[C@H]3OCc2c(-c3c(Cl)cccc3Cl)noc2C2CC2)nn1` [Compound I-325, 6-[(1S,4R,5R)-5-{[5-cyclopropyl-3-(2,6-dichlorophenyl)-1,2-oxazol-4-yl]methoxy}-3-oxo-2-azabicyclo[2.2.1]heptan-2-yl]pyridazine-3-carboxylic Acid]: the Emax was determined as 104%. In addition, the pEC50 (usually the EC50 on a negative log10 scale, so that one unit is a factor of ten) under setting [1] was 6.6. Under setting [1], `O=C(O)CCc1ccc(N2C(=O)[C@@H]3C[C@H]2C[C@H]3OCc2c(-c3c(Cl)cccc3Cl)noc2C2CC2)cn1` [Compound I-327, 3-{5-[(1S,4R,5R)-5-{[5-cyclopropyl-3-(2,6-dichlorophenyl)-1,2-oxazol-4-yl]methoxy}-3-oxo-2-azabicyclo[2.2.1]heptan-2-yl]pyridin-2-yl}propanoic Acid] returned a pEC50 above 5.5. Regarding `C[C@@H]1[C@@H]2C[C@@H](C[C@H]2OCc2c(-c3c(Cl)cccc3Cl)noc2C2CC2)N1c1ccc(C(=O)O)nc1` [Compound I-367, 5-[(1S,3R,4S,5R)-5-[[5-cyclopropyl-3-(2,6-dichlorophenyl)-1,2-oxazol-4-yl]methoxy]-3-methyl-2-azabicyclo[2.2.1]heptan-2-yl]pyridine-2-carboxylic Acid], the Emax turned out to be 61%. Besides, the pEC50 under setting [1] was 6.4. Regarding `O=C(NS(=O)(=O)[C@@H]1CCC[C@H]1O)c1ccc(N2C(=O)[C@@H]3C[C@H]2C[C@H]3OCc2c(-c3c(Cl)cccc3Cl)noc2C2CC2)cn1` [Compound I-350, 5-[(1S,4R,5R)-5-{[5-cyclopropyl-3-(2,6-dichlorophenyl)-1,2-oxazol-4-yl]methoxy}-3-oxo-2-azabicyclo[2.2.1]heptan-2-yl]-N-{[(1R,2R)-2-hydroxycyclopentyl]sulfonyl}pyridine-2-carboxamide], the Emax was 170%. Besides, the pEC50 under setting [1] stood at 8.1.

With `CO[C@@H]1CCC[C@H]1S(=O)(=O)NC(=O)c1ncc(N2C(=O)[C@@H]3C[C@H]2C[C@H]3OCc2c(-c3c(Cl)cccc3Cl)noc2C2CC2)cc1F` [Compound I-348, 5-[(1S,4R,5R)-5-{[5-cyclopropyl-3-(2,6-dichlorophenyl)-1,2-oxazol-4-yl]methoxy}-3-oxo-2-azabicyclo[2.2.1]heptan-2-yl]-3-fluoro-N-{[(1R,2R)-2-methoxycyclopentyl]sulfonyl}pyridine-2-carboxamide], the Emax came to 171%. Under setting [1], this molecule registered a pEC50 of 8. For `C[C@H]1[C@H]2C[C@H](C[C@@H]2OCc2c(-c3c(Cl)cccc3Cl)noc2C2CC2)N1c1ccc(C(=O)O)cc1` [Compound I-361, 4-[(1R,3S,4R,5S)-5-[[5-cyclopropyl-3-(2,6-dichlorophenyl)-1,2-oxazol-4-yl]methoxy]-3-methyl-2-azabicyclo[2.2.1]heptan-2-yl]benzoic acid], the Emax came to 52%. Also, under setting [1], the pEC50 is 6.

`O=C(O)c1ccc(N2C(=O)[C@@H]3C[C@H]2C[C@H]3OCc2c(-c3c(Cl)cccc3Cl)noc2C2CC2)nc1` [Compound I-322, 6-[(1S,4R,5R)-5-{[5-cyclopropyl-3-(2,6-dichlorophenyl)-1,2-oxazol-4-yl]methoxy}-3-oxo-2-azabicyclo[2.2.1]heptan-2-yl]pyridine-3-carboxylic acid]: the Emax was 132%. The same molecule gave a pEC50 under setting [1] of 7.4.

In the case of `Cc1cc(C(=O)NO)ccc1N1C[C@@H]2C[C@H]1C[C@H]2OCc1c(-c2c(Cl)cccc2Cl)noc1C1CC1` [Compound I-139, 4-[(1S,4S,5R)-5-{[5-cyclopropyl-3-(2,6-dichlorophenyl)-1,2-oxazol-4-yl]methoxy}-2-azabicyclo[2.2.1]heptan-2-yl]-N-hydroxy-3-methylbenzamide], the Emax was found to be 132%. The same molecule had an EC50 under setting [1] of 0.631 nM. Consider `O=C(NS(=O)(=O)C1CC1)c1ncc(N2C(=O)[C@@H]3C[C@H]2C[C@H]3OCc2c(-c3c(Cl)cccc3Cl)noc2C2CC2)cc1F` [Compound I-355, 5-((1S,4R,5R)-5-((5-cyclopropyl-3-(2,6-dichlorophenyl)isoxazol-4-yl)methoxy)-3-oxo-2-azabicyclo[2.2.1]heptan-2-yl)-N-(cyclopropylsulfonyl)-3-fluoropicolinamide], for which the Emax stood at 157%. Under setting [1], this molecule gave a pEC50 of 7.9. The like results for `O=C(NS(=O)(=O)C1CCCC1)c1ccc(N2C(=O)[C@@H]3C[C@H]2C[C@H]3OCc2c(-c3c(Cl)cccc3Cl)noc2C2CC2)cn1` [Compound I-353, N-(cyclopentylsulfonyl)-5-((1S,4R,5R)-5-((5-cyclopropyl-3-(2,6-dichlorophenyl)isoxazol-4-yl)methoxy)-3-oxo-2-azabicyclo[2.2.1]heptan-2-yl)picolinamide] were, in that order, 159% and 8.3. In the same order, the values of `C[C@H]1[C@H]2C[C@H](C[C@@H]2OCc2c(-c3c(Cl)cccc3Cl)noc2C2CC2)N1c1ccc(C(=O)NS(=O)(=O)C2CCOCC2)nc1` [Compound I-372, 5-[(1R,3S,4R,5S)-5-[[5-cyclopropyl-3-(2,6-dichlorophenyl)-1,2-oxazol-4-yl]methoxy]-3-methyl-2-azabicyclo[2.2.1]heptan-2-yl]-N-(oxane-4-sulfonyl)pyridine-2-carboxamide] are 22% and 6.1. The like results for `C[C@H]1[C@H]2C[C@H](C[C@@H]2OCc2c(-c3c(Cl)cccc3Cl)noc2C2CC2)N1c1ccc(C(=O)O)cc1F` [Compound I-364, 4-[(1R,3S,4R,5S)-5-{[5-cyclopropyl-3-(2,6-dichlorophenyl)-1,2-oxazol-4-yl]methoxy}-3-methyl-2-azabicyclo[2.2.1]heptan-2-yl]-3-fluorobenzoic Acid] were, in that order, 47% and 6.3. As to `O=C(NS(=O)(=O)C1CC1)c1ccc(N2C(=O)[C@@H]3C[C@H]2C[C@H]3OCc2c(-c3c(Cl)cccc3Cl)noc2C2CC2)cn1` [Compound I-351, 5-((1S,4R,5R)-5-((5-cyclopropyl-3-(2,6-dichlorophenyl)isoxazol-4-yl)methoxy)-3-oxo-2-azabicyclo[2.2.1]heptan-2-yl)-N-(cyclopropylsulfonyl)picolinamide], the Emax is 132%. Under setting [1], the pEC50 is given as 7.6. The like results for `CC1(C)CC(S(=O)(=O)NC(=O)c2ccc(N3C(=O)[C@@H]4C[C@H]3C[C@H]4OCc3c(-c4c(Cl)cccc4Cl)noc3C3CC3)cn2)CCO1` (stereo partly drawn) [Compound I-354, 5-((1S,4R,5R)-5-((5-cyclopropyl-3-(2,6-dichlorophenyl)isoxazol-4-yl)methoxy)-3-oxo-2-azabicyclo[2.2.1]heptan-2-yl)-N-((2,2-dimethyltetrahydro-2H-pyran-4-yl)sulfonyl)picolinamide] were, in that order, 138% and 8.1. In the same order, the values of `C[C@@H]1[C@@H]2C[C@@H](C[C@H]2OCc2c(-c3c(Cl)cccc3Cl)noc2C2CC2)N1c1ccc(C(=O)NS(=O)(=O)C2CCOCC2)cn1` [Compound I-373, 6-[(1S,3R,4S,5R)-5-[[5-cyclopropyl-3-(2,6-dichlorophenyl)-1,2-oxazol-4-yl]methoxy]-3-methyl-2-azabicyclo[2.2.1]heptan-2-yl]-N-(oxane-4-sulfonyl)pyridine-3-carboxamide] are 62% and 7.2. For the molecule `C[C@@H]1[C@@H]2C[C@@H](C[C@H]2OCc2c(-c3c(Cl)cccc3Cl)noc2C2CC2)N1c1ccc(C(=O)NS(=O)(=O)C2CCOCC2)nc1` [Compound I-371, 5-[(1S,3R,4S,5R)-5-[[5-cyclopropyl-3-(2,6-dichlorophenyl)-1,2-oxazol-4-yl]methoxy]-3-methyl-2-azabicyclo[2.2.1]heptan-2-yl]-N-(oxane-4-sulfonyl)pyridine-2-carboxamide], the Emax turned out to be 57%. This molecule gave a pEC50 under setting [1] of 6.7. As for `O=C(O)c1cnc(N2C(=O)[C@@H]3C[C@H]2C[C@H]3OCc2c(-c3c(Cl)cccc3Cl)noc2C2CC2)cn1` [Compound I-324, 5-[(1S,4R,5R)-5-{[5-cyclopropyl-3-(2,6-dichlorophenyl)-1,2-oxazol-4-yl]methoxy}-3-oxo-2-azabicyclo[2.2.1]heptan-2-yl]pyrazine-2-carboxylic Acid], the Emax came out at 140%. Under setting [1], the pEC50 amounted to 7.1.

For the molecule `C[C@@H]1[C@@H]2C[C@@H](C[C@H]2OCc2c(-c3c(Cl)cccc3Cl)noc2C2CC2)N1c1ccc(C(=O)O)cc1F` [Compound I-363, 4-[(1S,3R,4S,5R)-5-[[5-cyclopropyl-3-(2,6-dichlorophenyl)-1,2-oxazol-4-yl]methoxy]-3-methyl-2-azabicyclo[2.2.1]heptan-2-yl]-3-fluorobenzoic acid], the Emax was 61%. The same molecule gave a pEC50 under setting [1] of 7.1. The like results for `O=C(O)c1ccc(N2C(=O)[C@@H]3C[C@H]2C[C@H]3OCc2c(-c3c(Cl)cccc3Cl)noc2C2CC2)cn1` [Compound I-321, 5-[(1S,4R,5R)-5-{[5-cyclopropyl-3-(2,6-dichlorophenyl)-1,2-oxazol-4-yl]methoxy}-3-oxo-2-azabicyclo[2.2.1]heptan-2-yl]pyridine-2-carboxylic Acid] were, in that order, 146% and 7.6. In the same order, the values of `C[C@@H]1[C@@H]2C[C@@H](C[C@H]2OCc2c(-c3c(Cl)cccc3Cl)noc2C2CC2)N1c1ccc(C(=O)O)c(F)c1` [Compound I-362, 4-[(1S,3R,4S,5R)-5-[[5-cyclopropyl-3-(2,6-dichlorophenyl)-1,2-oxazol-4-yl]methoxy]-3-methyl-2-azabicyclo[2.2.1]heptan-2-yl]-2-fluorobenzoic acid] are 72% and 7.2.
